Assay results reported in patent US10197552B2, “Monitoring cell-to-cell interactions” (Oakland University, priority 2015, dated 2019).

What was measured:
Type in all cases: cell-based, human
[1] = tested on: adhesion of AML cells (KG-1) to HUVECs; assay: Number of adherent AML cells on HUVECs in co-culture, flow cytometric analysis; conditions: treated KG-1/HUVEC co-cultures as, in comparison to untreated controls; FIG. 15
Method: (§1) As illustrated throughout Example 1, acute myeloid leukemia (AML) cells mediate endothelial cell (EC) activation. In this Example, the effects of anti-inflammatories, namely thalidomide and lenalidomide, to prevent AML induced EC activation were tested. KG-1 cells were pre-treated with 100 μM thalidomide or 1 μM lenalidomide (half of total dose) for 1-hour. Co-cultures were then established by adding the pre-treated KG-1 cells (1×10^6 cells) to cultures containing HUVECs (˜80% confluence) with the addition of the second half of the total dose of the respective anti-inflammatories. After 24-hours, E-selectin expression on HUVECs was measured as a marker of EC activation using flow cytometry. Untreated (i.e., no anti-inflammatory added) co-cultures of KG-1 on HUVECs were used as controls. The results are shown in FIG. 14, where the + indicates whether the co-culture was the control, was treated with thalidomide, or was treated with lenalidomide.
It was determined whether thalidomide and lenalidomide were able to reduce EC activation mediated AML cell adhesion. Adherent cells were collected from treated (as described above) and control co-cultures, and the numbers of adherent AML cells in each population were enumerated based on flow cytometric analysis. […]

[2] = tested on: E-selectin expression on HUVECs; assay: E-selectin expression on HUVECs in KG-1 co-cultures, flow cytometry (marker of EC activation); conditions: KG-1/HUVEC co-culture, 24 hours; KG-1 pre-treated 1 hour with 100 μM thalidomide or 1 μM lenalidomide (half of total dose), second half added to co-culture; vs untreated co-cultures; FIG. 14
Method: as §1

[3] = tested on: HUVECs; assay: QCM monitoring of HUVEC activation by TNF-α, with microscope observation
Method: The gold QCM consists of a thin AT-cut quartz crystal wafer with a gold electrode on each side (9 MHz, non-polished with ˜1000 Å gold, geometric area is 0.28 cm^2, Beijing Chenjing Electronics Co., Ltd., China). The gold QCM was mounted between two biocompatible silicon O-rings to allow only one side of the gold electrode to be exposed to the liquid. The reaction chamber above the crystal was held with a 1 mL chlorinated polyethylene centrifugal tube. The device, being covered, was placed in a humidified CO2 incubator controlled at 5% CO2 and 37° C. to prevent evaporation from the culture holder.
An RQCM instrument (Maxtek Inc., USA) was used to simultaneously record resonant frequency (f0) and motional resistance (R1) of the QCM electrodes.
After being sterilized with 75% ethanol under UV light for 0.5 hours, the QCM culture-chamber was washed three times with PBS. Then, 500 μL of EGM-2 medium was added and the entire culture-chamber was put into the incubator. As soon as the QCM readout reached a stable baseline, 50 μL of EGM-2 medium containing freshly trypsinized 3×10^4 cells was added. All QCM measurements were performed in a static mode without stirring. The Δf0 and ΔR1 responses were simultaneously monitored in the process of cell attachment and growth in the next 24 hours.
Next, the EGM-2 medium was replaced by a medium containing 10% FBS and TNF-α with a specified concentration (ranging from 0 ng/ml to […]), allowing the HUVECs to suffer growth and activation up to 20 hours. After the concentration of HL-60 and KG-1 cells reached 5×10^6 cells mL^−1, they were collected from the medium by centrifugation at 1500 g for 5 minutes to remove IMDM, and were re-suspended with EGM-2 medium supplemented with 10% FBS. This was performed to reduce variations of the viscosity of the medium for measurements. The density of these suspension cells was determined with a hemacytometer. […]

[4] = tested on: adhesion of KG-1 cells to activated HUVECs; assay: QCM response to KG-1 cell binding on HUVECs activated with different TNF-α concentrations; conditions: 25×10^4 KG-1 cells on HUVECs activated by TNF-α at different concentrations; FIGS. 12C, 12D
Method: Next, the EGM-2 medium was replaced by a medium containing 10% FBS and TNF-α with a specified concentration (ranging from 0 ng/ml to […]), allowing the HUVECs to suffer growth and activation up to 20 hours. After the concentration of HL-60 and KG-1 cells reached 5×10^6 cells mL^−1, they were collected from the medium by centrifugation at 1500 g for 5 minutes to remove IMDM, and were re-suspended with EGM-2 medium supplemented with 10% FBS. This was performed to reduce variations of the viscosity of the medium for measurements. The density of these suspension cells was determined with a hemacytometer.
Finally, 100 μL of the cell-suspending solution was added into the measuring chamber. The Δf0 and ΔR1 responses were simultaneously monitored for 22 hours.
These examples confirmed that AML cells adhere to activated HUVECs based on binding with E-selectin. It is possible that the extent of activation of HUVECs, which is closely related to TNF-α concentration, should have an influence on the binding of AML cells. FIGS. 12A and 12B show the QCM responses induced by the addition of KG-1 cells with the same concentration (i.e., 25×10^4) on activated HUVECs after stimulation of TNF-α with different concentrations. […]

[5] = maximum reported concentration of TNF-α (range 0 to 400 ng ml^−1), 3×10^4 HUVECs on QCM gold electrode

Molecule	numbers of adherent AML cells [1]	E-selectin expression on HUVECs [2]	activation of HUVECs (shape-change, microscope images) ([3]; 40, 200 and 400 ng mL^−1 TNF-α, FIGS. 5B-5D)	frequency shifts in Stage IV as compared to those in Stage I [3, 5] [%]	resistance changes in Stage IV as compared to those in Stage I [3, 5] [%]	QCM response shifts (|Δf0| and ΔR1 changes) on addition of KG-1 cells [4]
Nc1cccc2c1CN(C1CCC(=O)NC1=O)C2=O (centres unmarked) [lenalidomide]	significantly reduce	significant reduction				
O=C1CCC(N2C(=O)c3ccccc3C2=O)C(=O)N1 (centres unmarked) [thalidomide]	significantly reduce	significant reduction				
TNF-α			effectively induce the activation of HUVECs in a dose dependent manner	15	7	increased with enhancement of TNF-α concentrations in the range of 2 ng mL^−1-200 ng mL^−1
